Test results reported in BindingDB's records for doi:10.1016/j.bmc.2016.12.017 (Sunshine Lake Pharma, 2017).

Assay: Inhibition of hepatitis B virus capsid assembly infected in human HepG2.215 cells assessed as reduction in viral DNA replication measured on day 7 by real time PCR analysis

Row | Structure (SMILES) | EC50 [nM]
1 | CCOC(=O)C1=C(CN2CCNCC2)NC(c2nccs2)=NC1c1ccc(F)cc1Cl (configuration not stated) | > 16400
2 | CCOC(=O)C1=C(CN2CCOCC2)NC(c2nccs2)=NC1c1ccccc1F (configuration not stated) | 74
3 | CCOC(=O)C1=C(CN2CCOCC2)NC(c2nccn2C)=NC1c1ccc(F)cc1Br (configuration not stated) | 20
4 | CCOC(=O)C1=C(CN2CCOCC2)NC(n2nnc(C)n2)=NC1c1ccc(F)cc1Br (configuration not stated) | > 16400
5 | C[C@H](Cn1cnc2c(N)ncnc21)OCP(=O)(O)O [CHEBI:63625] | 242
6 | CCOC(=O)C1=C(COC)NC(c2nccs2)=NC1c1ccc(F)cc1Cl (configuration not stated) | > 16400
7 | COC(=O)C1=C(C)NC(c2nccs2)=N[C@H]1c1ccc(F)cc1Cl | 100
8 | CC1=C(C(=O)O)C(c2ccc(F)cc2Cl)N=C(c2nccs2)N1 (configuration not stated) | > 16400
9 | CCOC(=O)C1=C(CN)NC(c2nccs2)=NC1c1ccc(F)cc1Cl (configuration not stated) | 5100
10 | CCOC(=O)C1=C(CN2CCOCC2)NC(c2nccs2)=NC1c1ccccc1Br (configuration not stated) | 10
11 | CCOC(=O)C1=C(CNCCO)NC(c2nccs2)=NC1c1ccc(F)cc1Cl (configuration not stated) | 900
12 | CCOC(=O)C1=C(C)NC(c2nccs2)=NC1c1ccc(F)cc1Cl (configuration not stated) | 150
13 | CCOC(=O)C1=C(CN2CCOCC2)NC(c2nnc(C)s2)=NC1c1ccc(F)cc1Br (configuration not stated) | > 16400
14 | Cc1cn([C@@H]2C[C@@H](O)[C@H](CO)O2)c(=O)[nH]c1=O [CHEBI:63624] | 819
15 | CCOC(=O)C1=C(CN2CCOCC2)NC(c2ncn(C)n2)=NC1c1ccc(F)cc1Br (configuration not stated) | 4300
16 | C=C1[C@H](CO)[C@@H](O)C[C@@H]1n1cnc2c(=O)[nH]c(N)nc21 [CHEBI:473990] | 0.24
17 | CCOC(=O)C1=C(CN2CCS(=O)(=O)CC2)NC(c2nccs2)=NC1c1ccc(F)cc1Cl (configuration not stated) | 80
18 | CCOC(=O)C1=C(CN2CCOCC2)NC(c2nccs2)=NC1c1ccc(F)cc1-c1ccc(OC)cc1 (configuration not stated) | > 16400
19 | CCOC(=O)C1=C(CN2CCOCC2)NC(c2nccs2)=NC1c1ccc(F)cc1-c1ccc(C(F)(F)F)cc1 (configuration not stated) | > 16400

Row | Structure (SMILES) | EC50 [nM]
20 | CC1=C(C(N)=O)C(c2ccc(F)cc2Cl)N=C(c2nccs2)N1 (configuration not stated) | > 16400
21 | CCOC(=O)C1=C(CN2CCOCC2)NC(n2cnnn2)=NC1c1ccc(F)cc1Br (configuration not stated) | > 16400
22 | COC(=O)C1=C(C)NC(c2nccs2)=NC1c1ccc(F)cc1Cl (configuration not stated) | 250
23 | CCOCC1=C(C(=O)OCC)C(c2ccc(F)cc2Cl)N=C(c2nccs2)N1 (configuration not stated) | 800
24 | CCOC(=O)C1=C(CN2CCOCC2)NC(c2nccs2)=NC1c1ccc(F)cc1F (configuration not stated) | 26
25 | CC1=C(C(=O)OC(C)(C)C)C(c2ccc(F)cc2Cl)N=C(c2nccs2)N1 (configuration not stated) | > 16400
26 | CC1=C(C(=O)OC(C)C)C(c2ccc(F)cc2Cl)N=C(c2nccs2)N1 (configuration not stated) | > 16400
27 | Nc1ncnc2c1ncn2CCOCP(=O)(O)O [9-[2-phosphonomethoxyethyl]adenine] | 83
28 | CCOC(=O)C1=C(CO)NC(c2nccs2)=NC1c1ccc(F)cc1Cl (configuration not stated) | > 16400
29 | CCOC(=O)C1=C(CN2CC[S+]([O-])CC2)NC(c2nccs2)=NC1c1ccc(F)cc1Cl (configuration not stated) | 100
30 | CNC(=O)C1=C(C)NC(c2nccs2)=NC1c1ccc(F)cc1Cl (configuration not stated) | > 16400
31 | CCOC(=O)C1=C(CN2CCCCC2)NC(c2nccs2)=NC1c1ccc(F)cc1Cl (configuration not stated) | 3500
32 | CCOC(=O)C1=C(CN2CCOCC2)NC(c2ncc(F)cc2F)=NC1c1ccc(F)cc1Br (configuration not stated) | 6
33 | CCOC(=O)C1=C(CN2CCOCC2)N(C)C(c2nccs2)=NC1c1ccc(F)cc1Cl (configuration not stated) | > 16400
34 | CCOC(=O)C1=C(CN2CCSCC2)NC(c2nccs2)=NC1c1ccc(F)cc1Cl (configuration not stated) | 250
35 | CC1=C(C(=O)NN)C(c2ccc(F)cc2Cl)N=C(c2nccs2)N1 (configuration not stated) | > 16400
36 | CCOC(=O)C1=C(COCCOC)NC(c2nccs2)=NC1c1ccc(F)cc1Cl (configuration not stated) | 200
37 | CCCOCC1=C(C(=O)OCC)C(c2ccc(F)cc2Cl)N=C(c2nccs2)N1 (configuration not stated) | 1200
